The text below walks through data of patent publication US20250241976A1, “ADMINISTRATION OF AN ANTICANCER PEPTIDE” (Verrica Pharmaceuticals, Inc., priority 2024, published 2025).

Data set [1] in a line: Storage of reconstituted Peptide A solution. It is filed as physicochemical. The method, then:
(§1) Peptide A was provided as the acetate salt, 20 mg of lyophilized powder per vial for injection. The powder was reconstituted in saline to a concentration ranging from 4-20 mg/mL based upon the target dose and volume for each subject. Peptide A was supplied in colorless glass vials (Ph. Eur. hydrolytic class I) fitted with rubber stopper (Ph. Eur. type I).
Peptide A vials (20 mg/vial) were stored at 2-8° C. (36-46° F.) or −20±5° C. (−13 to 5° F.) protected from light at the study site, separated from other drugs. The reconstituted Peptide A solution can be stored for up to 12 hours in a refrigerator at 2-8° C. (36-46° F.). Syringes with Peptide A drawn from the vial can be stored for up to 4 hours at 20-25° C. (68-77° F.) protected from light. Any unused portion was discarded.

The subject of data set [2] is basal cell carcinoma (BCC) lesion. Put plainly: Clinical study: intradermal injection of Peptide A into basal cell carcinoma lesions, with TRAEs, withdrawals and necrosis recorded. It is filed as in vivo, human. The method, then: This study involved human adults ≥18 years of age with clinically suspected BCC with at least 1 (and up to 5) eligible lesion(s) suitable for biopsy and excision. The size of the lesion(s) were ≥0.5 cm and ≤2 cm in longest diameter prior to punch biopsy or ≥1 cm and ≤2 cm in longest diameter prior to shave biopsy. Histological diagnosis of nodular, micronodular, or superficial BCC, as confirmed by punch or shave biopsy, was performed within 90 days of treatment.
as §1
Peptide A (acetate salt) was administered via intradermal injection into a single target lesion (between ≥0.5 cm and ≤2 cm in longest diameter) using the 1-mL syringe and 30-gauge 0.5-inch needle. The subjects were positioned in a way so that the target lesion lies flat, to avoid any dependent areas that may be susceptible to leakage of the pharmaceutical composition. Subsequent injections for the same lesion were given in remaining nonnecrotic areas of the lesion, as assessed prior to treatment. […]
Cohort 2 was assigned a regimen of 8 mg of Peptide A for each treatment day (with no partitioned administration on any day).
[…] The total 500 μL (8 mg) dosage volume is divided into 2 injections given at least 15 minutes and no more than 30 minutes apart, with 30% (150 μL) administered in the first injection and the remaining 70% (350 μL) with the second injection.
A radial administration method was also used for Cohorts 4 and 5. The formulation with Peptide A is injected intradermally for all injections and subcutaneous injection should be avoided. It is important to ensure adequate and even distribution of Peptide A across the entire base of the lesion. To accomplish adequate and even distribution of Peptide A across the entire lesion: The first 150 μL is injected as centrally as possible such that Peptide A can distribute radially outward; and the second (350 μL) portion is injected in a clockface fashion (i.e., at 12, 3, 6, 9 o'clock as shown in FIG. 1) as needed to ensure uniform distribution into the periphery of the lesion. The needle is inserted at a 10- to 20-degree angle for a flat lesion, or at an increased angle (i.e., greater than 20-degree) for a raised lesion.

Where a SMILES comes first, the peptide text is derived from it. [ ]: non-standard residue; d: D form. Dip = N[C@H](C(=O)O)C(c1ccccc1)c1ccccc1

Regarding `NCCCC[C@H](NC(=O)[C@@H](NC(=O)[C@H](Cc1c[nH]c2ccccc12)NC(=O)[C@H](CCCCN)NC(=O)[C@H](CCCCN)NC(=O)[C@H](Cc1c[nH]c2ccccc12)NC(=O)[C@H](Cc1c[nH]c2ccccc12)NC(=O)[C@H](CCCCN)NC(=O)[C@@H](N)CCCCN)C(c1ccccc1)c1ccccc1)C(N)=O` [Peptide A, KKWWKKWDipK-NH2] (H-KKWWKKW[Dip]K-NH2), the “Storage time of syringes with Peptide A drawn from the vial” value in data set [1] (20-25° C., protected from light) is on record as “up to 4 hours”. Further, the “Storage time of reconstituted Peptide A solution” value in data set [1] (reconstituted in saline, refrigerator at 2-8° C.) is “up to 12 hours”. Also, the “Subjects experiencing TRAEs of burning and pain at the injection site” value in data set [2] (Cohorts 1 and 2, 4 mg then 8 mg or 8 mg daily, no partitioned administration) is reported as “Several subjects”. In data set [2] (Cohorts 1 and 2, no partitioned administration), the “Subjects withdrawn from treatment due to TRAEs” value is on record as “Two subjects withdrew”. For the same compound, in data set [2] (Cohorts 4 and 5, partitioned (30%/70%, 15-30 min apart) and radial administration, 8 mg in 500 μL), the “Change in TRAEs” value is on record as “marked decrease”. The “Withdrawal from study treatment due to TRAEs of burning or pain at the injection site” value in data set [2] (Cohorts 4 and 5 and expansion cohorts (10, 10, 26, 27 subjects enrolled), partitioned and radial administration, 8 mg) was “No subjects have withdrawn from study”. The “Treatment status after TRAE” value in data set [2] (Subject 3, Cohort 1, W1D2, no partitioned administration, subject withdrawn from treatment) is reported as “Discontinued”; in data set [2] (Subject 8, Cohort 2, W1D2, no partitioned administration, subject withdrew from treatment), “Discontinued”. In addition, the Lesion necrosis status entry in data set [2] (Subject 5, Cohort 1, W1D3 after 4 mg W1D1 and 8 mg W1D2, no partitioned administration, no injection given) is given as “Complete”. Moreover, the “TRAEs (pain severity)” value in data set [2] (Subject 8, Cohort 2, 8 mg on W1D1, no partitioned administration) is “experiencing moderate”. Besides, the “Duration of pain post-treatment” value in data set [2] (Subject 8, Cohort 2, 8 mg, no partitioned administration) is “about 3-4 hours post-”. In addition, the TRAEs reported entry in data set [2] (Subject 9, Cohort 2, after the W1D2 treatment (8 mg), no partitioned administration, subject continued treatment) was “injection-site burning”.
